According to PubChem BioAssay (NCI):
Values joined by “and” are separate entries in the source; they are usually repeats but may differ in a detail not shown here. Equal values may be shown once.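 Test compounds were applied to cells in 96-well plates for 48 hours at 5 doses. GI50: concentration for 50% inhibition of growth. TGI is the concentration that stops growth completely.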

Legend:
Assay in all cases: NCI anticancer screen, dose series, 48 h
A498 renal = system: A498 renal
HCC-2998 colon = system: HCC-2998 colon
HT29 colon = system: HT29 colon
IGROV1 ovarian = system: IGROV1 ovarian
NCI-H522 lung = system: NCI-H522 lung
OVCAR-5 ovarian = system: OVCAR-5 ovarian
RPMI-8226 leukemia = system: RPMI-8226 leukemia
SF-268 CNS = system: SF-268 CNS
SNB-19 CNS = system: SNB-19 CNS
UACC-62 melanoma = system: UACC-62 melanoma

Row | SMILES | GI50 (A498 renal) [µM] | TGI (A498 renal) | GI50 (HCC-2998 colon) [µM] | TGI (HCC-2998 colon) | GI50 (HT29 colon) [µM] | TGI (HT29 colon) | GI50 (IGROV1 ovarian) [µM] | TGI (IGROV1 ovarian) [µM] | GI50 (NCI-H522 lung) [µM] | TGI (NCI-H522 lung) | GI50 (OVCAR-5 ovarian) [µM] | TGI (OVCAR-5 ovarian) [µM] | GI50 (RPMI-8226 leukemia) [µM] | TGI (RPMI-8226 leukemia) [µM] | GI50 (SF-268 CNS) [µM] | TGI (SF-268 CNS) [µM] | GI50 (SNB-19 CNS) [µM] | TGI (SNB-19 CNS) [µM] | GI50 (UACC-62 melanoma) [µM] | TGI (UACC-62 melanoma) [µM]
1 | CN1CCN(C(=O)OCc2nc3c(N4CCOCC4)nc(Cl)nc3n2C)CC1 | 1.15 | 2.46 µM | 1.62 | 3.15 µM | 0.898 | 3.17 µM | 1.24 | 2.57 | 1.1 | 2.74 µM | 1.6 | 3.54 | 0.33 | 1.63 | 1.59 | 3.72 | 1.65 | 3.62 | 1.38 | 2.8
2 | C=C1C(=O)O[C@H]2[C@H]1CC/C(Cn1cc(-c3ccc(OC)cc3)nn1)=C\CC[C@@]1(C)O[C@@H]21 | 2.35 | 11.3 µM | 1.98 | 3.64 µM | 1.23 | 2.86 µM | 1.35 | 3.27 | 0.387 | 1.73 µM | 1.71 | 3.66 | 1.87 | 5.15 | 2.07 | 5.23 | 6.92 | 21.4 | 1.35 | 2.99
3 | COC(=O)[C@]12CC[C@@H](C)[C@H](C)[C@@H]1C1=CC[C@@H]3[C@@]4(C)C/C(=N\O)[C@H](O)[C@@]5(C)COC(=C45)C[C@@]3(C)[C@]1(C)CC2 | 9.94 | 21.9 µM | 11.5 | 24.9 µM | 2.88 | 9.31 µM | 8.87 | 25.1 | 14.1 | 30.1 µM | 15.9 | 33.6 | 2.67 | 6.82 | 12.6 | 30 | 10.5 | 31.5 | 12.6 | 27.1
4 | CC(C)c1nc(CN(C)C(=O)N[C@H](C(=O)N[C@@H](Cc2ccccc2)C[C@H](O)[C@H](Cc2ccccc2)NC(=O)OCc2cncs2)C(C)C)cs1 | 19.1 | 43.2 µM | 22.2 | 45.2 µM | 19.3 | 50.6 µM | 36.4 | > 100 | 28.7 | > 81 µM | 28.2 | 71.5 | 7.9 | 27.7 | 20.3 | 66.7 | 26.4 | > 89 | 18.5 | 34.9
5 | O=C(c1ccccc1)c1nnc(C(=O)c2ccccc2)nn1 | – | – | – | > 344 µM | – | > 344 µM | – | > 344 | – | > 344 µM | – | > 344 | – | > 344 | – | > 344 | – | > 344 | – | > 344
6 | C/C(CC(=O)Nc1cc(Cl)c(Cl)cc1Cl)=N\NC(N)=O | – | – | – | > 100 µM | – | > 100 µM | – | > 100 | – | > 100 µM | – | > 100 | – | > 100 | – | > 100 | – | – | – | > 100
7 | CC(C)(CC(=O)Nc1ccccc1)C(=O)O | – | > 100 µM | – | – | – | > 100 µM | – | > 100 | – | – | – | > 100 | – | > 100 | – | – | – | > 100 | – | > 100
8 | Cc1ccc2c(c1)[n+]([O-])c(N)n[n+]2[O-] | – | > 100 µM | – | – | – | > 100 µM | – | > 100 | – | > 100 µM | – | > 100 | – | > 100 | – | > 100 | – | > 100 | – | –
9 | O=C1CCCCN1CCCCC#Cc1ccccc1C#Cc1ccc([N+](=O)[O-])cc1 | 4.01 | 25 µM | – | – | 3.74 | 59.6 µM | 8.21 | 37.5 | 12.3 | 59.5 µM | 5.25 | 18.7 | 0.408 | 3.39 | 11.7 | 27.3 | 6.57 | 19.4 | 5.77 | 20.3
10 | O=C(/N=N/C(=O)OCc1ccccc1)OCc1ccccc1 | – | – | – | > 100 µM | – | > 100 µM | – | > 100 | – | – | – | > 100 | – | > 100 | – | > 100 | – | > 100 | – | > 100
11 | O=C1CCC(=O)N2CCCCN12 | – | > 100 µM | – | > 100 µM | – | > 100 µM | – | > 100 | – | > 100 µM | – | > 100 | – | – | – | > 100 | – | > 100 | – | > 100
12 | Cc1cc2c(cc1C)[n+](=O)c(C(=O)C/C(=N/NC(=O)CC#N)C(=O)Nc1ccccc1C(F)(F)F)c(C)n2[O-] | – | > 100 µM | – | > 100 µM | – | > 100 µM | – | > 100 | – | 35.5 µM | – | > 100 | – | – | – | > 100 | – | > 100 | – | > 100
13 | CCc1ccc(/C=C\c2cc(OC)c(OC)c(OC)c2)cc1 | 0.0233 | 0.433 µM and 0.389 µM | 0.0577 | 0.342 µM and 0.438 µM | – | 0.527 µM and 0.121 µM | – | – | – | 0.0503 µM and 0.0384 µM | 16.7 | > 100 | 0.0373 | – | 0.06 | 46.9 | 0.0176 | – | – | –
14 | O=C1O[C@@H](c2ccc3c(c2)OCO3)C2C(=O)O[C@@H](c3ccc4c(c3)OCO4)C12 (stereo partly specified) | – | > 100 µM | – | > 100 µM | – | > 100 µM | – | > 100 | – | > 100 µM | – | – | – | > 100 | – | > 100 | – | > 100 | – | > 100
15 | C/C(CC(=O)Nc1ccc(C)cc1C)=N/N=C(N)N | – | > 100 µM | – | > 100 µM | – | > 100 µM | – | > 100 | – | > 100 µM | – | > 100 | – | > 100 | – | > 100 | – | – | – | > 100
16 | O=C1C2c3[nH]c4ccccc4c3C3CCCCCCC3C2C(=O)N1c1ccccc1 (stereo unspecified) | – | 39.9 µM | – | > 100 µM | – | > 100 µM | – | – | – | – | – | – | – | 68.3 | – | > 100 | – | – | – | > 100
17 | CCC[CH2][Sn]1([CH2]CCC)[O]Cc2nc(C)ccc2[O]1 | 13.3 | 26.8 µM | 7.86 | 21.3 µM | 12.8 | 29.1 µM | 14.9 | 28.8 | 1.19 | 2.5 µM | 12.3 | 24.8 | 1.99 | 6.87 | – | – | 3.95 | 14.9 | 2.06 | 4.57
18 | COc1ccc(/C(COc2c(-c3ccccc3)oc3ccccc3c2=O)=N\O)cc1 | – | – | 8.42 | 22.3 µM | 20.7 | > 50 µM | 22.9 | > 50 | 11.1 | 28.5 µM | – | – | 21.5 | > 50 | 13.4 | 41 | 17.5 | > 50 | 12.7 | 43.5
